This is an account of results in PubChem BioAssay AID1996.

Converted amounts (≈) assume the structure as drawn.

For this data set the following is noted: buffer; pH 7.4; 200.0 µM.
The compound `CN1CCCN(C(=O)c2cccc3ccccc23)CC1` gave a solubility (kinetic) above 40.3 µg/mL.

Compound `CCC(=O)c1cn(CC(=O)Nc2c(C)cccc2C)c2ccccc12` had a kinetic solubility below 0.4 µg/mL.

`COc1cccc(C(=O)NCc2ccc3[nH]c(C)cc3c2)c1` had a solubility (kinetic) of 15.8 µg/mL (≈ 53.7 µM).

The compound `O=C(NC(=O)c1ccccc1)Nc1cccc(S(=O)(=O)N2CCCCC2)c1` came in with a kinetic solubility of 2.2 µg/mL (≈ 5.68 µM).

`CCCCC(C(=O)NC(C)c1ccccc1)C(=O)NC(C)c1ccccc1` (configuration not stated): the kinetic solubility came out at 1.5 µg/mL (≈ 4.09 µM).

In the case of `CCOc1ccc(NC(=S)c2ccc3ccccc3n2)cc1`, the solubility (kinetic) was below 0.3 µg/mL.

As to `COc1ccc2c(CC(=O)Nc3ccc(N4CCOCC4)cc3)coc2c1`, the kinetic solubility stood at 5.4 µg/mL (≈ 14.7 µM).

In turn, `CCOC(=O)C1=C(C)NC(C)=C(C(=O)OCC)C1C(=O)OCC(=O)NCc1ccco1` came in with a kinetic solubility above 65.2 µg/mL.

In turn, `CCOC(=O)Cc1csc(NC(=O)Cc2ccc(Cl)cc2)n1` came in with a kinetic solubility of 5.5 µg/mL (≈ 16.2 µM).

`O=C(O)c1cccnc1SCC(=O)N1CCCc2ccccc21` showed a kinetic solubility of 47 µg/mL (≈ 143 µM).

In the case of `CCCOc1ccc2nc(C)c(CCC)c(SC(=N)N)c2c1.Cl`, the solubility (kinetic) stood at 33 µg/mL.

Regarding `CC(C)(C)c1ccc(SCCc2cccnc2)cc1`, the solubility (kinetic) is below 0.6 µg/mL.

`O=C(COC(=O)c1ccc([N+](=O)[O-])o1)NCCc1ccccc1` yielded a kinetic solubility above 47.7 µg/mL.

In turn, `O=C(Cc1cccs1)NCCc1csc(-c2ccccc2)n1` registered a kinetic solubility above 49.3 µg/mL.

`CCOc1ccc(C2(C)NC(=O)N(CCN(C)C)C2=O)cc1` (configuration not stated) yielded a kinetic solubility of 38.1 µg/mL (≈ 125 µM).

The compound `CCOc1ccccc1C(=O)NCC(=O)O` displayed a solubility (kinetic) above 33.5 µg/mL.

`COc1cccc(C(=O)Nc2ccc(Oc3cccc(C(F)(F)F)c3)nc2)c1` registered a kinetic solubility below 0.4 µg/mL.

In turn, `C=CCNc1nc(Cl)nc(Nc2cc(Cl)ccc2OC)n1` returned a solubility (kinetic) below 0.1 µg/mL.

The compound `O=C(OCc1ccccc1Cl)c1cc([N+](=O)[O-])ccc1N1CCOCC1` registered a kinetic solubility of 3.4 µg/mL (≈ 9.02 µM).

Compound `O=c1[nH]c2ccccc2n1C1=CCNCC1` showed a kinetic solubility above 32.3 µg/mL.

The compound `Cc1ccc(OCCn2ccnc2)c(C)c1` yielded a kinetic solubility of 22.8 µg/mL (≈ 105 µM).

With `COc1ccc(CCOC(=O)c2ccc(NC(=O)CC#N)cc2)cc1`, the solubility (kinetic) is 4.1 µg/mL (≈ 12.1 µM).

Take `Cc1cnc(C(=O)Oc2c(C)ccc(C)c2C)cn1`: the kinetic solubility came out at 38.2 µg/mL (≈ 149 µM).

Regarding `CC1=C(C(=O)NCc2ccc(Cl)cc2)C2(CCC(C)CC2)OC1=O` (configuration not stated), the kinetic solubility amounted to 4.3 µg/mL (≈ 12.4 µM).

Take `CC1CCN(C(=O)CS(=O)(=O)Cc2ccccc2)CC1`: the kinetic solubility came out at 42.3 µg/mL (≈ 143 µM).

Regarding `CC(=O)Nc1ccc(S(=O)(=O)N2C(C)CCCC2C)cc1` (configuration not stated), the kinetic solubility was above 46.6 µg/mL.

Compound `Clc1ccc(-c2cn3ccccc3n2)cc1` registered a kinetic solubility of 2.5 µg/mL (≈ 10.9 µM).

`Cc1cc(C(=O)N(CCC#N)Cc2cccs2)no1` had a solubility (kinetic) above 41.3 µg/mL.

As to `CC(NC(=O)c1ccc(F)cc1F)C1CC2CCC1C2` (configuration not stated), the kinetic solubility is 12.7 µg/mL (≈ 45.5 µM).

Turning to `CCN(Cc1ccncc1)C(=S)NCc1ccccc1`, the kinetic solubility was determined as 42.1 µg/mL (≈ 148 µM).

On to `COc1cc(/C=C2\N=C(C)OC2=O)cc(OC)c1OC`, for which the solubility (kinetic) worked out at 25.3 µg/mL (≈ 91.2 µM).

Regarding `Cc1cc(-c2cccc(Br)c2)c(C#N)c(N)n1`, the solubility (kinetic) worked out at 3.1 µg/mL (≈ 10.8 µM).

`O=C(Nc1ccccc1C(=O)Nc1ccccc1)c1ccco1` registered a kinetic solubility of 0.9 µg/mL (≈ 2.94 µM).

For `CCCCCc1nnc(NC(=O)c2ccc(=O)n(C)n2)s1`, the solubility (kinetic) was above 46.1 µg/mL.

Take `Cc1ccccc1NC(=O)CCCC(=O)c1ccccc1`: the solubility (kinetic) worked out at 21.9 µg/mL (≈ 77.8 µM).

`O=C(CSCc1ccccc1)Nc1ccc(F)cc1F`: the kinetic solubility was 41 µg/mL (≈ 140 µM).

As to `Cc1ccc(/C([O-])=C(/C(=S)NCc2ccccc2)[n+]2ccccc2)cc1[N+](=O)[O-]`, the solubility (kinetic) worked out at 12 µg/mL (≈ 29.6 µM).

The compound `O=C1C(Cl)=C(NCCN2CCOCC2)C(=O)c2ccccc21` came in with a solubility (kinetic) above 48.1 µg/mL.

Compound `CCOc1ccccc1C(=O)NCC(=O)N(C)Cc1cccnc1` had a kinetic solubility of 44.8 µg/mL (≈ 137 µM).

Regarding `O=C1C(Cc2cnc[nH]2)NC(=S)N1c1ccccc1` (configuration not stated), the solubility (kinetic) came out at 37.4 µg/mL (≈ 137 µM).

Take `O=C(c1ccc(Br)cc1)N1CCN(c2ncccn2)CC1`: the solubility (kinetic) was found to be 44.6 µg/mL (≈ 128 µM).

Take `COc1ccc(-c2cc(C(F)(F)F)nc(N)n2)cc1`: the solubility (kinetic) was found to be 1.4 µg/mL (≈ 5.2 µM).

`COc1ccc(-c2c(NCCc3ccccc3)c(=O)c2=O)cc1` had a solubility (kinetic) of 1 µg/mL (≈ 3.25 µM).

In turn, `CCOc1ccccc1NC(=O)NC(=O)N(C)S(C)(=O)=O` yielded a solubility (kinetic) of 18 µg/mL (≈ 57.1 µM).

In turn, `CC(C)(C)C(=O)OCc1nc(-c2ccc(O)c(O)c2)cs1` yielded a solubility (kinetic) of 39.5 µg/mL (≈ 129 µM).

With `Cn1c(=O)[nH]c(=O)c2c1nc1n2CCCN1Cc1ccccc1`, the kinetic solubility is 8.1 µg/mL (≈ 26 µM).

As to `CC1C(=O)Nc2ccccc2N1C(=O)c1ccc(F)cc1F` (configuration not stated), the solubility (kinetic) is above 45.3 µg/mL.

Turning to `COc1ccc(CC(=O)Nc2ccc(N(C)C)c3ccccc23)cc1`, the kinetic solubility turned out to be 7.6 µg/mL (≈ 22.7 µM).

`CC(OC(=O)/C(C#N)=C/c1ccco1)C(=O)N(C)c1ccccc1` (configuration not stated) gave a solubility (kinetic) of 47.8 µg/mL (≈ 147 µM).

For `O=S(=O)(c1ccc(F)cc1)N1CCCCC1c1cccnc1` (configuration not stated), the solubility (kinetic) is above 48.1 µg/mL.

Turning to `COc1cccc(C(=O)c2c(C)c(CCC#N)n3ccccc23)c1`, the solubility (kinetic) worked out at 43.5 µg/mL (≈ 137 µM).

For the compound `CCOC(=O)Cc1csc(NC(=O)Nc2cccs2)n1`, the solubility (kinetic) turned out to be 18.4 µg/mL (≈ 59.1 µM).

In general, kinetic solubility refers to solubility judged after dilution from a stock solution rather than from solid.
